System: eyes of ocular normotensive cynomolgus monkeys
Assay: Intraocular pressure (IOP) by Goldmann applanation tonometry after 5 twice-daily unilateral topical treatments
Assay type: in vivo, cynomolgus monkeys (Macaca fascicularis)
Conditions: for IOP less than at baseline prior to the 5th treatment: one eye, both treated and control eye; for IOP decrease prior to the fifth treatment on day 3: both eyes
Experimental: Ocular normotensive adult cynomolgus monkeys (Macaca fascicularis), of either sex, weighing 3-7 kg were anesthetized with i.m. ketamine HCl (3-25 mg/kg, supplemented with 1-10 mg/kg) for IOP and topical drop administration. All monkeys were free of any ocular abnormalities according to slit lamp biomicroscopy at the time measurements were taken. The monkeys were provided by the Primate Center at the University of Wisconsin-Madison. All experiments were done in accordance with the ARVO Statement on the Use of Animals in Ophthalmic and Vision Research.
The intraocular pressure (IOP) was determined with a “minified” Goldmann applanation tonometer [Kaufman, 1980] using HALF AND HALF™ creamer solution (Borden) as the tear film indicator [Croft, 1997] with the monkey lying prone in a head holder and the eyes positioned 4 to 8 cm above the heart. All monkeys were examined by slit-lamp before the first IOP measurement in each protocol. For each eye, two or three IOP measurements were averaged as a baseline.
Under ketamine anesthesia (KETAJECT™, Phoenix Pharmaceutical, St Joseph, Mo. (3-25 mg/kg i.m., supplemented with 1-10 mg/kg i.m. as needed) baseline IOP was determined, usually between 7:30 and 9 am (2 readings, 5 minutes apart; if IOP baseline measurements were not within 2-3 mm Hg of each other, a 3rd reading was taken 5 min later). Baseline IOP was at least 15 mmHg if possible. A baseline blood sample was taken from the femoral artery or vein, or sometimes the brachial vein (1-2 ml). This was allowed to clot and then spun down (3000 rpm for 10 min, Damon/IEC NH-SII centrifuge) and the serum removed and frozen at −20 C for no more than 1 week. Baseline systolic, diastolic and mean arterial pressure as well as heart rate were recorded with the Dinamap monitor from a cuff placed around the arm or the leg.
After baseline measurements, the monkey was place supine with the eye pointing up and the eyelid held open. A 5 μl drop of test material or vehicle was delivered to opposite eyes. The eyelid was held open for at least 30 sec and the eye was maintained in the upward position for an additional 30 sec. The monkey was then returned to its cage and allowed to wake up. In the afternoon, at least 6 hours after the morning treatment, another treatment was administered. On the second day, dosing was repeated in the am and pm.
On the 3th day, prior to the 5th treatment, baseline IOP, biomicroscopy and MAP were determined. Preliminary studies indicated an effect was observed after these treatments but not after a single treatment. Following the 5th dose, IOP was measured at 1, 2, 3, 4, 5, 6, 7, 8, 12 (if possible), 24, and sometimes 48 hr. Biomicroscopy was done at 1, 3, 6, 24 and sometimes 48 hr. MAP on day 3 (some protocols) was determined at 1, 2, 3, 4, 5, 6, 7, 8, 24 and sometimes 48 hr if possible. Blood samples after the 5th treatment were collected at 6, 24, and sometimes 48 hr. For some protocols, IOP was also measured prior to each treatment; MAP was measured prior to the morning treatment; blood was collected prior to the afternoon treatment. Subsequent screening protocols will not include the MAP and blood collections and will only measure IOP at baseline and prior to and for 1-6 hr after the 5th treatment.
Adult cynomolgus monkeys (Macaca fascicularis) of either sex were anesthetized with intramuscular ketamine HCl (10 mg/kg initial, 5 mg/kg supplemental). Baseline pretreatment IOP was determined by Goldmann applanation tonometry [Kaufman, 1980] with […] used as a tear film indicator [Croft, 1997]. Two baseline IOP measurements were taken 5 minutes apart. […]

[1] = Example 3, 5 μg unilateral topical

C=C1/C(=C\C=C2/CCC[C@]3(C)[C@@H]([C@H](C)CCCC(C)(C)O)CC[C@@H]23)C[C@@H](O)C[C@@H]1O [1,25-(OH)2D3, 1α,25-dihydroxyvitamin D3]
IOP in treated eye compared with control eye (Example 1, 5 μg (2MD 6 μg) in 5 μl propylene glycol one eye, vehicle opposite eye): consistently, but not significantly less than in the control eye
IOP less than at baseline prior to the 5th treatment (Example 1, 5 μg in 5 μl propylene glycol twice daily, n=8): 3-4 mmHg
IOP less than at baseline prior to the 5th treatment (Example 1, 5 μg twice daily, n=8, p<0.05): ~17%
time of gradual recovery of IOP toward baseline (Example 1, 5 μg, after 5th treatment): 24 to 48 h
additional IOP decrease after the 5th treatment (Example 1, 5 μg, hr 1-4 after 5th dose): 1-2 mmHg
total IOP reduction after the 5th treatment (Example 1, 5 μg, hr 1-4 after 5th dose, p<0.02): 20-30%
strongest response, IOP decrease (Example 1, 5 uniocular topical treatments): up to 40%
rank order of ocular hypotensive effect (Example 1, 5 uniocular topical treatments at the same dose): 1,25(OH)2D3>2MD>AGR
effect on IOP (Example 3, 0.1 μg unilateral topical, either eye): did not have any significant effect on IOP in either eyes
IOP reduction in control versus treated eyes (Example 3, 1 μg): stronger IOP reduction in the fellow control eyes than in the treated eyes
IOP reduction (bilateral) (Example 3, 1 μg unilateral topical): 20%
IOP difference between treated and control eyes (Example 3, 5 μg): no significant differences between the two eyes except for the time period of 12 h or longer
IOP reduction, control eyes (Example 3, 5 μg in opposite eye): 27%
IOP reduction, treated eye [1]: 30%
IOP decrease prior to the fifth treatment on day 3 [1]: ~3 mmHg
IOP decrease prior to the fifth treatment on day 3 (Example 3, 5 μg unilateral topical, p<0.05): approximately 20%
time of return of IOP to near pretreatment baseline (Example 3, 5 μg, after fifth treatment): 48 h
duration of IOP-lowering effect (topical application, nonhuman primates): more than 12 hours
